{"source": "patent US9295673B2", "about": "“Combination of mTOR inhibitors and P13-kinase inhibitors, and uses thereof” (Intellikine LLC, priority 2011, dated 2016)", "key": {"PI3K γ": {"target": "PI3K γ (Homo sapiens, UniProt P48736)", "sequence (P48736 whole entry)": "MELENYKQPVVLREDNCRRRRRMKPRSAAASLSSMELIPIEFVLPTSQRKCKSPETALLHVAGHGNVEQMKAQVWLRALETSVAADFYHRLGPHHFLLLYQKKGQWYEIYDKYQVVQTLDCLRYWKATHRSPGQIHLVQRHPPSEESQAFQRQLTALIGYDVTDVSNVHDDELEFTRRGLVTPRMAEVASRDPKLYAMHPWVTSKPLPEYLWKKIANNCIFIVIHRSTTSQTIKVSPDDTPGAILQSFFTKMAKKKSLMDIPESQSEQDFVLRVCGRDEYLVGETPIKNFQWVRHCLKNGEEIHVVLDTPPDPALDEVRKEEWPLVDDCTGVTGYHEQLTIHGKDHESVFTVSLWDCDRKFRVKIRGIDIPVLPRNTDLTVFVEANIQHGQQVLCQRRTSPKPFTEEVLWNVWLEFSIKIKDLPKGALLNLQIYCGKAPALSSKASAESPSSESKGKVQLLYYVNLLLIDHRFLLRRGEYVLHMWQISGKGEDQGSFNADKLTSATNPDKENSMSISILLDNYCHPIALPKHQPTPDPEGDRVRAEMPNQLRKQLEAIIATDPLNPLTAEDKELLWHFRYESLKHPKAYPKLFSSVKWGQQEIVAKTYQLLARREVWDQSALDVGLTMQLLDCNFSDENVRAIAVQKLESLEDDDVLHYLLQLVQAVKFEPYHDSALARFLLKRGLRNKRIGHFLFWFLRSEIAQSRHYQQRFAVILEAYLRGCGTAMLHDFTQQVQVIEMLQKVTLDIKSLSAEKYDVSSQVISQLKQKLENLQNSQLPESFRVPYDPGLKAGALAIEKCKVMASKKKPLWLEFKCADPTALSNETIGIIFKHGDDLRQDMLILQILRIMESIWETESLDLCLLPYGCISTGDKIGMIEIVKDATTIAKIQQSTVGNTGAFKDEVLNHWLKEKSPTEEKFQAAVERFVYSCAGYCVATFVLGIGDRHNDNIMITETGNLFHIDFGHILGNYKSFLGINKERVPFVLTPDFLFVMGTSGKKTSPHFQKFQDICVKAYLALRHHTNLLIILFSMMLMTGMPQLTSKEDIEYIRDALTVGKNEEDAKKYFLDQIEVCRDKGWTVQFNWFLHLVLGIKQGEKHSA", "assay": "PI 3-Kinase (human) HTRF assay, PI3K γ", "procedure": "An exemplary system is PI 3-Kinase (human) HTRF™ Assay from Upstate. […] Briefly, the assay is a time resolved FRET assay that indirectly measures PIP3 product formed by the activity of a PI3-K. The kinase reaction is performed in a microtitre plate (e.g., a 384 well microtitre plate). The total reaction volume is approximately 20 ul per well. In the first step, each well receives 2 ul of test compound in 20% dimethylsulphoxide resulting in a 2% DMSO final concentration. […] The plate is sealed and incubated for 15 minutes at room temperature. […] The plate is sealed and incubated for 1 hour at room temperature. The reaction is stopped by adding 5 ul of Stop Solution per well and then 5 ul of Detection Mix is added per well. The plate is sealed, incubated for 1 hour at room temperature, and then read on an appropriate plate reader. Data is analyzed and IC50s are generated using GraphPad Prism 5."}, "PI3K δ": {"target": "PI3K δ (Homo sapiens, UniProt O00329)", "sequence (O00329 whole entry)": "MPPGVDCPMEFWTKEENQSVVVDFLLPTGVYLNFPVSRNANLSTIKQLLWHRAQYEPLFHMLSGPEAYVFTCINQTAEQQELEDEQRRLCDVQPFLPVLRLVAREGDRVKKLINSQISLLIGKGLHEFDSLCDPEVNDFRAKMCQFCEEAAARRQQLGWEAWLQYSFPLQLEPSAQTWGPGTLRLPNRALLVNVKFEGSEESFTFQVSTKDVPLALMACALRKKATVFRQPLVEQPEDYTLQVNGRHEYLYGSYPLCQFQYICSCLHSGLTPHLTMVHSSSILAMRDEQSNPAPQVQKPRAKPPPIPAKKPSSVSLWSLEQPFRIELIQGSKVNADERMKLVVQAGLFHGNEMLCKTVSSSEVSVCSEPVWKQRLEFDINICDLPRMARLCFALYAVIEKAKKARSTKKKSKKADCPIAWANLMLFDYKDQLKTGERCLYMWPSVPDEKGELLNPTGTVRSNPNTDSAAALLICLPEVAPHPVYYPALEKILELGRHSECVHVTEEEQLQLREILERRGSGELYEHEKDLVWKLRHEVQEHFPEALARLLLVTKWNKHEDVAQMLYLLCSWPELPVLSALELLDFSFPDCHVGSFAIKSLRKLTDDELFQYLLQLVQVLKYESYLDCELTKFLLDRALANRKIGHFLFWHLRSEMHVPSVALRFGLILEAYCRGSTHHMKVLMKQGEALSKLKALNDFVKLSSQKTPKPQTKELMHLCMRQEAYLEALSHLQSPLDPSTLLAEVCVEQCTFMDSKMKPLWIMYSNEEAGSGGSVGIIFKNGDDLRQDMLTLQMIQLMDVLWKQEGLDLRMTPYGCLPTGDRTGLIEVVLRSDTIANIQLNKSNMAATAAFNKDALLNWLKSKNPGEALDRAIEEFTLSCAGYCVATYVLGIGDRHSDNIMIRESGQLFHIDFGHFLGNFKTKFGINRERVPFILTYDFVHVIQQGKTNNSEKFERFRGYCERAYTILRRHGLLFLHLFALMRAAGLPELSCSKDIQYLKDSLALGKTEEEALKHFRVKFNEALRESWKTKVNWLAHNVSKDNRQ", "sequence (P27986 whole entry partner)": "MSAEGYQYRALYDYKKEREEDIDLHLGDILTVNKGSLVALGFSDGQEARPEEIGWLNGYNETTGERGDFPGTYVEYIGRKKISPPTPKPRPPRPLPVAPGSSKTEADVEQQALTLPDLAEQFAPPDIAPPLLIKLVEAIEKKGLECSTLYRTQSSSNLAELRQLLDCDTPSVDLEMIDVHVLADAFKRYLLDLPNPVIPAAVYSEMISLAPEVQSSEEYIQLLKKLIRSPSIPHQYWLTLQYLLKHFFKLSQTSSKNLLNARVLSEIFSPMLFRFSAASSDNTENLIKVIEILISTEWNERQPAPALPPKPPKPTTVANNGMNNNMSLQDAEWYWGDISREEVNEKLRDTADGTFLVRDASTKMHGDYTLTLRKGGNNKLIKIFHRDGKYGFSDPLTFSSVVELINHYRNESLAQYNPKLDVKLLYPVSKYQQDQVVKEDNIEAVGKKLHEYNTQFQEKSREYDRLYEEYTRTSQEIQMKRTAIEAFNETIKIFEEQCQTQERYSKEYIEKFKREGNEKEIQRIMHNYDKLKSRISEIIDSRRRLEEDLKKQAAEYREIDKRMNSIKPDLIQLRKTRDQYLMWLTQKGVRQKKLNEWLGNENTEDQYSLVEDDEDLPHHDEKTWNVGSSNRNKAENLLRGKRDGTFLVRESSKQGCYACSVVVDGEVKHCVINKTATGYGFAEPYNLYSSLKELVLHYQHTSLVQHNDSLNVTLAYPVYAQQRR", "assay": "PI 3-Kinase (human) HTRF assay, PI3K δ"}, "PI3K β": {"target": "PI3K β (Homo sapiens, UniProt P42338)", "sequence (P42338 whole entry)": "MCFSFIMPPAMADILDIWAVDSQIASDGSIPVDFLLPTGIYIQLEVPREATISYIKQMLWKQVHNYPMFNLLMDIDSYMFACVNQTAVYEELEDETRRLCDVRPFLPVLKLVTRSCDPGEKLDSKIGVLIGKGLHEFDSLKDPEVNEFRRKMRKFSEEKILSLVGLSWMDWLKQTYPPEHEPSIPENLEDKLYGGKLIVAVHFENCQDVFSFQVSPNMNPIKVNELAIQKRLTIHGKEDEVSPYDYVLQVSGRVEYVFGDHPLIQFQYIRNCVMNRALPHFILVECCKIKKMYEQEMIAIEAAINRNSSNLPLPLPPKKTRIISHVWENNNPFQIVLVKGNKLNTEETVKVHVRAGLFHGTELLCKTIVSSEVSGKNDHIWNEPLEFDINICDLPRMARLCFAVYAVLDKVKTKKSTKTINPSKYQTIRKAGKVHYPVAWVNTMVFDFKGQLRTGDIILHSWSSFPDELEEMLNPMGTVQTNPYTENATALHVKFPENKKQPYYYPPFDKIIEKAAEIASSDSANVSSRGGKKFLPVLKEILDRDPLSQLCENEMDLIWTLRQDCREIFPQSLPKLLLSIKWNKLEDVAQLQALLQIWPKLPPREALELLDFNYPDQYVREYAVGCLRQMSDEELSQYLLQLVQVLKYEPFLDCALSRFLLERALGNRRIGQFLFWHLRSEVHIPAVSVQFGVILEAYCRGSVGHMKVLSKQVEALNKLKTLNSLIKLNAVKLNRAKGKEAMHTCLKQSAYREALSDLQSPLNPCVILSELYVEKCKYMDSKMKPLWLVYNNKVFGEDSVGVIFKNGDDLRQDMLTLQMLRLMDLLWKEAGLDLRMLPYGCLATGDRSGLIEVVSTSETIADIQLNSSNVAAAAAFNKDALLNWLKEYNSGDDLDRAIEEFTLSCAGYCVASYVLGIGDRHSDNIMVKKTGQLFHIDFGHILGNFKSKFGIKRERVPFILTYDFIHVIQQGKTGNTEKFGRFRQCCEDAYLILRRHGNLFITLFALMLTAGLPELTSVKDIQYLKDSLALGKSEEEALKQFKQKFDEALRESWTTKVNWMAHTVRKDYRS", "sequence (P27986 whole entry partner)": "as the sequence (P27986 whole entry partner) above", "assay": "PI 3-Kinase (human) HTRF assay, PI3K β", "conditions": "read-out: PI3K β IC50; Table 4"}}, "note": "Like-named read-outs stand apart in the source and are kept apart here.", "data": [{"smiles": "CN1CCC(Oc2ncnc3ccc(-c4ccc5oc(N)nc5c4)cc23)CC1", "note": "[Compound 34]", "values": [{"measurement": "IC50", "setting": "PI3K γ; read-out: PI3K γ IC50", "result": "< 0.1", "unit": "µM"}]}, {"smiles": "CC(N)C(=O)N1CCN(c2cnc3ccc(-c4ccc5oc(N)nc5c4)cc3n2)CC1", "note": "(stereo not drawn) [Compound 134]", "values": [{"measurement": "IC50", "setting": "PI3K γ; read-out: PI3K γ IC50", "result": "< 10", "unit": "µM"}]}, {"smiles": "C[C@@H]1CN(c2cnc3ccc(-c4ccc5oc(N)nc5c4)cc3n2)CCN1", "note": "[Compound 179]", "values": [{"measurement": "IC50", "setting": "PI3K δ; read-out: PI3K δ IC50", "result": "< 10", "unit": "µM"}]}, {"smiles": "NC(=O)[C@H]1CCCN1C(=O)c1cnc2ccc(-c3ccc4oc(N)nc4c3)cn12", "note": "[Compound 260]", "values": [{"measurement": "IC50", "setting": "PI3K γ; read-out: PI3K γ IC50", "result": "< 10", "unit": "µM"}]}, {"smiles": "Nc1nc2cc(-c3ccc4ncc(C(=O)N5CC[C@H](O)C5)n4c3)ccc2o1", "note": "[Compound 264]", "values": [{"measurement": "IC50", "setting": "PI3K δ; read-out: PI3K δ IC50", "result": "< 10", "unit": "µM"}]}, {"smiles": "Nc1nc2cc(-c3ccc4ncc(C(=O)N5CC[C@@H](O)C5)n4c3)ccc2o1", "note": "[Compound 265]", "values": [{"measurement": "IC50", "setting": "PI3K δ; read-out: PI3K δ IC50", "result": "< 10", "unit": "µM"}]}, {"smiles": "Nc1nc2cc(-c3ccc4ncc(N5CC(N6CC[C@H](O)C6)C5)nc4c3)ccc2o1", "note": "[Compound 322]", "values": [{"measurement": "IC50", "setting": "PI3K δ; read-out: PI3K δ IC50", "result": "< 10", "unit": "µM"}]}, {"smiles": "CN1CCN([C@H]2CCN(c3cnc4ccc(-c5ccc6oc(N)nc6c5)cc4n3)C2)CC1", "note": "[Compound 381]", "values": [{"measurement": "IC50", "setting": "PI3K δ; read-out: PI3K δ IC50", "result": "< 10", "unit": "µM"}]}, {"smiles": "C[C@H]1CN(c2cnc3ccc(-c4ccc5oc(N)nc5c4)cc3n2)CCN1", "note": "[Compound 396]", "values": [{"measurement": "IC50", "setting": "PI3K δ", "result": "> 10", "unit": "µM"}, {"measurement": "IC50", "setting": "PI3K γ", "result": "< 10", "unit": "µM"}]}, {"smiles": "Cc1ncc(-c2ccc3ncc(C(=O)N4CCOCC4)n3c2)c2cn[nH]c12", "note": "[Compound 530]", "values": [{"measurement": "IC50", "setting": "PI3K δ; read-out: PI3K δ IC50, in vitro", "result": "< 10", "unit": "µM"}]}, {"smiles": "C[C@H]1CN(c2cnc3ccc(-c4ccc5oc(N)nc5c4)nc3n2)CCN1", "note": "[Compound 552]", "values": [{"measurement": "IC50", "setting": "PI3K δ; read-out: PI3K δ IC50, Table 4", "result": "< 10", "unit": "µM"}, {"measurement": "IC50", "setting": "PI3K γ; read-out: PI3K γ IC50, Table 4", "result": "< 10", "unit": "µM"}]}, {"smiles": "Nc1nc2cc(-c3ccc4ncc(-c5cccnc5)nc4n3)ccc2o1", "note": "[Compound 554]", "values": [{"measurement": "IC50", "setting": "PI3K β", "result": "< 10", "unit": "µM"}]}, {"smiles": "CN1CCN(c2cnc3ccc(-c4ccc5oc(N)nc5c4)nc3n2)CC1", "note": "[Compound 555]", "values": [{"measurement": "IC50", "setting": "PI3K δ; read-out: PI3K δ IC50", "result": "< 10", "unit": "µM"}, {"measurement": "IC50", "setting": "PI3K γ; read-out: PI3K γ IC50, Table 4", "result": "< 10", "unit": "µM"}]}, {"smiles": "Nc1nc2cc(-c3ccc4ncc(N5CC(N6CCOCC6)C5)nc4n3)ccc2o1", "note": "[Compound 556]", "values": [{"measurement": "IC50", "setting": "PI3K δ; read-out: PI3K δ IC50", "result": "< 10", "unit": "µM"}, {"measurement": "IC50", "setting": "PI3K γ; read-out: PI3K γ IC50, Table 4", "result": "< 10", "unit": "µM"}]}, {"smiles": "CS(=O)(=O)N1CCN(C2CN(c3cnc4ccc(-c5ccc6oc(N)nc6c5)nc4n3)C2)CC1", "note": "[Compound 559]", "values": [{"measurement": "IC50", "setting": "PI3K δ; read-out: PI3K δ IC50, Table 4", "result": "< 10", "unit": "µM"}]}, {"smiles": "CCOC(=O)N1CC=C(c2cnc3ccc(-c4ccc5oc(N)nc5c4)nc3n2)CC1", "note": "[Compound 560]", "values": [{"measurement": "IC50", "setting": "PI3K δ; read-out: PI3K δ IC50, Table 4", "result": "< 10", "unit": "µM"}, {"measurement": "IC50", "setting": "PI3K β", "result": "< 10", "unit": "µM"}]}, {"smiles": "C[C@H]1CN(C2CN(c3cnc4ccc(-c5ccc6oc(N)nc6c5)nc4n3)C2)CCN1", "note": "[Compound 561]", "values": [{"measurement": "IC50", "setting": "PI3K δ; read-out: PI3K δ IC50, Table 4", "result": "< 10", "unit": "µM"}, {"measurement": "IC50", "setting": "PI3K γ; read-out: PI3K γ IC50, Table 4", "result": "< 10", "unit": "µM"}]}, {"smiles": "Nc1nc2cc(-c3ccc4ncc(C5=CCOCC5)nc4n3)ccc2o1", "note": "[Compound 562]", "values": [{"measurement": "IC50", "setting": "PI3K β", "result": "< 10", "unit": "µM"}]}, {"smiles": "C[C@@H]1CN(C2CN(c3cnc4ccc(-c5ccc6oc(N)nc6c5)nc4n3)C2)CCN1", "note": "[Compound 563]", "values": [{"measurement": "IC50", "setting": "PI3K δ; read-out: PI3K δ IC50, Table 4", "result": "< 10", "unit": "µM"}]}, {"smiles": "C[C@@H]1COCCN1c1cnc2ccc(-c3ccc4oc(N)nc4c3)nc2n1", "note": "[Compound 565]", "values": [{"measurement": "IC50", "setting": "PI3K δ; read-out: PI3K δ IC50, Table 4", "result": "< 10", "unit": "µM"}, {"measurement": "IC50", "setting": "PI3K β", "result": "< 10", "unit": "µM"}]}, {"smiles": "C[C@H]1COCCN1c1cnc2ccc(-c3ccc4oc(N)nc4c3)nc2n1", "note": "[Compound 566]", "values": [{"measurement": "IC50", "setting": "PI3K β", "result": "< 10", "unit": "µM"}]}, {"smiles": "Nc1nc2cc(-c3ccc4ncc(-c5cccnc5)cc4n3)ccc2o1", "note": "[Compound 567]", "values": [{"measurement": "IC50", "setting": "PI3K δ; read-out: PI3K δ IC50, Table 4", "result": "< 10", "unit": "µM"}, {"measurement": "IC50", "setting": "PI3K β", "result": "< 10", "unit": "µM"}]}, {"smiles": "C[C@H]1CN(C2CN(c3cnc4ccc(-c5ccc6oc(N)nc6c5)nc4n3)C2)CCN1C", "note": "[Compound 572]", "values": [{"measurement": "IC50", "setting": "PI3K δ; read-out: PI3K δ IC50, Table 4", "result": "< 10", "unit": "µM"}]}, {"smiles": "CN1CCN(c2cnc3ccc(-c4ccc5oc(N)nc5c4)nc3c2)CC1", "note": "[Compound 575]", "values": [{"measurement": "IC50", "setting": "PI3K δ; read-out: PI3K δ IC50, Table 4", "result": "< 10", "unit": "µM"}]}, {"smiles": "C[C@@H]1CN(C2CN(c3cnc4ccc(-c5ccc6oc(N)nc6c5)nc4n3)C2)CCN1C", "note": "[Compound 576]", "values": [{"measurement": "IC50", "setting": "PI3K δ; read-out: PI3K δ IC50, Table 4", "result": "< 10", "unit": "µM"}, {"measurement": "IC50", "setting": "PI3K γ; read-out: PI3K γ IC50, Table 4", "result": "< 10", "unit": "µM"}]}, {"smiles": "CCN(CC)c1cnc2ccc(-c3ccc4oc(N)nc4c3)nc2n1", "note": "[Compound 577]", "values": [{"measurement": "IC50", "setting": "PI3K δ; read-out: PI3K δ IC50, Table 4", "result": "< 10", "unit": "µM"}]}, {"smiles": "C[C@@H]1CN(c2cnc3ccc(-c4ccc5oc(N)nc5c4)nc3n2)CCN1", "note": "[Compound 578]", "values": [{"measurement": "IC50", "setting": "PI3K δ; read-out: PI3K δ IC50, Table 4", "result": "< 10", "unit": "µM"}]}]}
